In article PMC4382154, “Screening of the Pan-African Natural Product Library Identifies Ixoratannin A-2 and Boldine as Novel HIV-1 Inhibitors” (PLoS ONE, 2015):
Where a name gives a salt, the structure may show the parent alone. Read-outs that look alike come from different tables or passages of the source.

Columns and labels:
[1] = Cell toxicity in HIV-1 infected CEM-GXR cultures (forward/side scatter); format: cell-based; conditions: human, HIV-1NL4-3-infected CEM-GXR cells (CD4+ T-lymphocyte line), Day 4
Method: (§1) CEM-GXR cells are an immortalized CD4+ T-lymphocyte line engineered that naturally express the HIV-1 coreceptor CXCR4 and have been further engineered to express the HIV-1 co-receptor CCR5 and a Tat-driven LTR-GFP expression cassette. As such, intracellular GFP expression indicates HIV-1 infection. Cultures of 10^5 CEM-GXR cells were seeded into 96-well plates with RPMI-1640 media (Sigma) supplemented with penicillin/streptomycin plus 20% fetal calf serum (R20+), infected with HIV-1 at a multiplicity of infection of 0.03 (to achieve 3% infected cells on Day 2), and incubated at 37°C and 5% CO2. 24 hours later, cells were pelleted at 750 g and resuspended in R20+ containing compound or 0.1% DMSO. […] Cells were then incubated at 37°C and 5% CO2 for an additional 72 h. 5,000 cells from each culture were measured for cell toxicity and GFP expression by flow cytometry. Flow cytometry data were analyzed using FlowJo v. 8.8.7 software (FlowJo LLC, Ashland, OR). […] Background GFP expression in uninfected cultures was set at 0.05% GFP-positive cells. For each experiment, all data points were obtained in triplicate. All data are reported as the mean ± s.e.m. from at least 3 independent experiments performed with different virus stocks and/or performed on different days. However, all experiments that compare HIV-1NL4-3 and mutant HIV-1 were performed in parallel. EC50 and CC50 values for each compound were calculated from at least four concentrations. Statistical analyses were performed using Student’s unpaired t test, with a p value < 0.05 plus a Bonferroni correction to adjust for multiple comparisons considered significant.
(§2) To assess the effects of these eight compounds on cell viability and HIV-1 replication, we infected a GFP-reporter CEM CD4+ T cell line (CEM-GXR) with the NL4-3 strain of HIV-1 (HIV-1NL4-3). Briefly, cells were infected with HIV-1NL4-3 at a multiplicity of infection of 0.03 (Day 0), followed by removal of HIV-1 and addition of compound (or 0.1% DMSO vehicle control) 24 hours later (Day 1) and incubation for an additional 72 hours to allow HIV-1 spread (Days 2–4). On Days 2 and/or 4, the percent HIV-1 infected (i.e., GFP-expressing) cells was measured by flow cytometry. Cell viability was assessed by measuring the percentage of cells displaying normal forward- and side-scatter parameters in drug-treated, HIV-1 infected cultures compared to 0.1% DMSO-treated, HIV-1 infected control cultures. […] HIV-1NL4-3 replication was unaffected by the presence of 0.1% DMSO vehicle control (Fig. 2B).

HIV-1NL4-3 [2] = assay: microbe, parasite or virus in culture; format: cell-based; conditions: for HIV-1 inhibition in the viral replication assay (in words): up to 100 μM; for EC50: read-out: HIV-1NL4-3 inhibition (EC50); for replication of HIV-1NL4-3 in CEM-GXR cells (in words): 0.1 μM
Method: as §1, §2

[3] = test system: HCV J4(1b)/JFH1(2a) chimera; assay: HCV replication assay in Huh-7.5 cells (NS5A flow cytometry); format: cell-based; conditions: Hepatitis C virus, Huh7.5, 72 h, read-out: inhibition of HCV replication
Method: The intergenotypic chimeric HCV used in this study—Bi-Gluc-J4(1b)/JFH1(2a) containing cell culture adaptive mutations in NS2 (T2996C) and NS3 (A4827T)—was previously described and subsequently modified to express Gaussia luciferase in the first cistron. HCV stocks used for infection were generated by electroporation of in vitro transcribed RNA into Huh-7.5.1 cells and pooling of supernatants harvested between 60–96 hr post-electroporation. HCV infectivity was determined by limiting dilution assay as previously described.
HCV cell culture was performed as described previously. Briefly, 4*10^4 Huh-7.5 cells were seeded into 24-well plates and incubated at 37°C and 5% CO2 overnight. Cells were then infected with HCV (multiplicity of infection = 0.3) for 6 hours, followed by removal of HCV and incubation with fresh medium containing compounds at stated concentrations. Cultures were then incubated for 72 hours, with no more than 0.1% DMSO present in culture medium. Cells were then trypsinized, resuspended in culture medium, and stained with the 9E10 alexa-fluor-conjugated antibody to NS5A [27]. Cells were fixed and analyzed for NS5A fluorescence by flow cytometry, and data were analyzed using FlowJo software. […] For each culture, NS5A fluorescence was determined as the percent gated cells relative to percent gated cells in infected cultures plus 0.1% DMSO. All experiments were performed in at least duplicate in at least two independent experiments.
We therefore assessed the effects of ixoratannin A-2, boldine, and BIT-225 on replication of HCV, which also encodes a viral ion channel and protease. Using an established cell culture system, Huh-7.5 cells were infected with an intergenotypic chimera between the J4 (genotype 1b) and JFH1 (genotype 2a) strain of HCV for 6 hours, followed by incubation with fresh medium containing compounds at defined concentrations. Infected cells were then incubated for an additional 72 hours. NS5A expression, a marker of HCV infection, was then detected by flow cytometry.

[4] = test system: Madin-Darby bovine kidney cells; design: method as in PMID 20832370; conditions: read-out: CC50 in bovine viral diarrhea virus-infected Madin-Darby bovine kidney cells; cited from earlier work
SupT1 and CEM-SS cells = conditions: cited from earlier work
HIV-1NL4-3 [5] = assay: HIV-1 replication assay in PBMCs (p24Gag ELISA); format: cell-based; conditions: 10 μM, Day 12
Method: PBMCs from HIV-1 negative subjects, purchased commercially (StemCell Technologies, Vancouver, Canada), were maintained in RPMI-1640 media (Sigma) supplemented with penicillin/streptomycin plus 10% fetal calf serum (R10+). 72 h prior to viral infection, PBMCs were stimulated by addition of 5 μg/mL phytohaemaglutanin (PHA) (Day 0) and maintained in R10+ medium supplemented with 100 units/mL human IL-2. At Day 3 following cellular activation, 3x10^5 cells were infected with HIV-1NL4-3 at a multiplicity of infection of 0.003 (0.3% infected cells) and incubated at 37°C for 6h, followed by wash and re-suspension in fresh R10+ medium supplemented with 100 units/mL human IL-2 and with or without compounds at defined concentrations. Culture supernatants were collected and replaced with fresh medium supplemented with human IL-2 every 3 days (i.e., Days 6, 9, and 12) with or without fresh compounds. Viral replication at day 12 was monitored by measuring cell culture supernatant levels of p24^Gag by ELISA (XpressBio, Frederick, MD) following manufacturer’s instructions.

in vitro = format: cell-based; conditions: human
[6] = test system: monocyte derived macrophages; conditions: cited from earlier work
[7] = PBMC cytotoxicity (ViaCount Assay); format: cell-based; conditions: human, PHA-activated PBMCs; Day 5, ViaCount
Method: Cytotoxicity was determined by ViaCount Assay (Millipore). Briefly, Day 3 PHA-activated PBMCs (3*10^5) were cultured in R10+ supplemented with 100 units/mL human IL-2 in the presence of 0.1% DMSO or compounds at defined concentrations. At Day 5, 15 μL of each PBMC culture was mixed with Guava ViaCount Reagent at a 1:10 dilution. Data were collected using a Guava EasyCyte HT Flow Cytometer (Millipore).

HIV-1PR+RT = HIV-1PR+RT replication in CEM-GXR cells; format: cell-based; conditions: 0.1 μM, CEM-GXR cells, Day 4
Method: (§3) HIV-1Δvpu was constructed by digesting plasmid p210-13 3’ Δ-vpu with EcoRI and NheI enzymes. The resulting DNA fragment was then ligated into wild-type pNL4-3 plasmid digested with the same enzymes. HIV-1Δvpu and HIV-1NL4-3 viral stocks were prepared by transfection of HEK-293T cells, as previously described. Patient plasma-HIV-1 RNA sequences were analyzed for resistance mutations using the HIV Drug Resistance Database Genotype Resistance Interpretation Algorithm (hivdb.stanford.edu). Recombinant HIV-1NL4-3 expressing patient-derived HIV-1 sequences harboring resistance mutations to protease and reverse transcriptase inhibitors (HIV-1PR+RT), reverse transcriptase inhibitors (HIV-1RT), and integrase inhibitors (HIV-1INT) were generated by homologous recombination following co-transfection as reported.
as §1
(§4) To investigate the mechanisms by which ixoratannin A-2 and boldine may block HIV-1 replication, we used a previously-reported HIV-1NL4-3 strain lacking the Vpu coding region (HIV-1Δvpu). We also constructed recombinant HIV-1NL4-3 strains harboring protease, reverse transcriptase, and/or integrase sequences of HIV-1 strains from patients who had developed resistance to the protease inhibitor Indinavir (IND), the non-nucleoside reverse transcriptase inhibitor Efavirenz (EFV), and/or the integrase inhibitor Raltegravir (RAL) (denoted HIV-1PR+RT, HIV-1RT, and HIV-1INT, respectively). Re-sequencing of the recombinant viruses confirmed the presence of multiple mutations known to confer resistance to IND, EFV, and/or RAL (Table 2).

HIV-1RT = assay: microbe, parasite or virus in culture; format: cell-based; conditions: 0.1 μM, CEM-GXR cells, Day 4
Method: CEM-GXR cells are an immortalized CD4+ T-lymphocyte line engineered that naturally express the HIV-1 coreceptor CXCR4 and have been further engineered to express the HIV-1 co-receptor CCR5 and a Tat-driven LTR-GFP expression cassette. As such, intracellular GFP expression indicates HIV-1 infection [26]. Cultures of 10^5 CEM-GXR cells were seeded into 96-well plates with RPMI-1640 media (Sigma) supplemented with penicillin/streptomycin plus 20% fetal calf serum (R20+), infected with HIV-1 at a multiplicity of infection of 0.03 (to achieve 3% infected cells on Day 2), and incubated at 37°C and 5% CO2. 24 hours later, cells were pelleted at 750 g and resuspended in R20+ containing compound or 0.1% DMSO. […] Cells were then incubated at 37°C and 5% CO2 for an additional 72 h. 5,000 cells from each culture were measured for cell toxicity and GFP expression by flow cytometry. […] Background GFP expression in uninfected cultures was set at 0.05% GFP-positive cells. For each experiment, all data points were obtained in triplicate. All data are reported as the mean ± s.e.m. from at least 3 independent experiments performed with different virus stocks and/or performed on different days. […] EC50 and CC50 values for each compound were calculated from at least four concentrations. Statistical analyses were performed using Student’s unpaired t test, with a p value < 0.05 plus a Bonferroni correction to adjust for multiple comparisons considered significant.

HIV-1Δvpu = HIV-1Δvpu replication in CEM-GXR cells; format: cell-based; conditions: 0.1 μM, Day 4
Method: as §3, §1, §4

CEM-GXR cells = assay: Cell toxicity in HIV-1 infected CEM-GXR cultures (forward/side scatter); format: cell-based; conditions: HIV-1NL4-3-infected CEM-GXR cells, Day 4
Method: as §1, §2

HIV-1INT = HIV-1INT replication in CEM-GXR cells; format: cell-based; conditions: 0.1 μM, CEM-GXR cells, Day 4
Method: as §3, §1, §4

[8] = Human immunodeficiency virus 1, 96 h, CEM-GXR cells, Day 4

SMILES | CC50 at 72 h [1] | HIV-1 inhibition in the viral replication assay (in words) (HIV-1NL4-3 [2]; CEM-GXR cells) | EC50 (HIV-1NL4-3 [2]; [8]) | replication of HIV-1Δvpu in CEM-GXR cells (in words) (HIV-1Δvpu) | replication of HIV-1NL4-3 in CEM-GXR cells (in words) (HIV-1NL4-3 [2]; Day 4) | further results
CC(=O)c1c(O)cc(OC2OC(O)C(O)C(O)C2O)c(-c2c(C)cc(O)c3c2C(=O)c2cccc(O)c2C3=O)c1O (stereo not drawn) [2MA, 1-(3-acetyl-2,4-dihydroxy-6-((3,4,5,6-tetrahydroxytetrahydro-2H-pyran-2-yl)oxy)phenyl)-4,5-dihydroxy-2-methylanthracene-9,10-dione] | 50.9 µM | did not inhibit HIV-1 | > 100 µM |  |  | 
Cn1cc(-c2cccc3cc(C(=O)NC(=N)N)ccc23)cn1 [BIT-225, reference compound] | 10.7 µM |  |  |  |  | inhibition at 30 µM [3]: 37.5%; CC50 [4]: 11.6 µM; CC50 (SupT1 and CEM-SS cells): 32 to 67 µM; reduced HIV-1 replication in PBMCs (p24Gag) (HIV-1NL4-3 [5]): 31.8%; CC50 at 72 h (in vitro): 52.9 µM; CC50 [6]: 167 to 284 µM; CC50 [7]: 12.8 µM
O=c1oc2c(O)c(O)cc3c(=O)oc4c(O)c(O)cc1c4c23 [EA, ellagic acid] | 52.3 µM | did not observe these activities | > 100 µM |  |  | 
O=C(O[C@@H]1Cc2c(O)cc(O)cc2O[C@@H]1c1ccc(O)c(O)c1)c1cc(O)c(O)c(O)c1 [ECG, epicatechin gallate] | > 100 µM | did not observe antiviral activity | > 100 µM |  |  | 
O=C1Nc2ccc(Cl)cc2[C@@](C#CC2CC2)(C(F)(F)F)O1 [EFV, Efavirenz, reference compound] |  |  |  | inhibited | inhibited | HIV-1PR+RT replication fold higher than HIV-1NL4-3 (HIV-1PR+RT): 2.6 fold; HIV-1RT replication fold greater than HIV-1NL4-3 (HIV-1RT): 3.4 fold
CC(C)(C)NC(=O)[C@@H]1CN(Cc2cccnc2)CCN1C[C@@H](O)C[C@@H](Cc1ccccc1)C(=O)N[C@H]1c2ccccc2C[C@H]1O [IND, Indinavir, reference compound] |  |  |  | inhibited | inhibited | HIV-1PR+RT replication fold higher than HIV-1NL4-3 (HIV-1PR+RT): 2.7 fold
COc1cc2ccc3c(OC)c(O)ccc3c2c(OC)c1O [PA, 1,5,7-trimethoxyphenanthrene-2,6-diol] | < 30 µM |  |  |  |  | CC50 (CEM-GXR cells): 26.8 µM
Cc1nnc(C(=O)NC(C)(C)c2nc(C(=O)NCc3ccc(F)cc3)c(O)c(=O)n2C)o1 [RAL, Raltegravir, reference compound] |  |  |  | inhibited | inhibited | HIV-1INT replication fold higher than HIV-1NL4-3 (HIV-1INT): 1.7 fold
O=C1OCc2cc3cccc(OC4OC(CO)C(O)C(O)C4O)c3c(O)c21 (stereo not drawn) [geshoidin] | > 10 µM | did not inhibit HIV-1 |  |  |  | EC50 (HIV-1NL4-3 [2]; Human immunodeficiency virus 1, CEM-GXR, 96 h): > 100 µM
CC(N)C12CC3CC(CC(C3)C1)C2 (stereo not drawn) [rimantadine, rimantadine hydrochloride, reference compound] |  |  |  |  |  | inhibition at 50 µM [3]: 40.7%
